32 compounds from PubChem BioAssay (NCI) can be followed below.

Common to all, as to test: NCI tumour cell line growth inhibition, 48 h
The subject of test [1] is DLD-1 colon.
For test [2], the system named is DMS 114 small cell lung.
For test [3], the system named is HOP-18 NSCLC.
The test system of test [4] is LXFL 529 NSCLC.
Test [5] has as its system XF 498 CNS.
The test system of test [6] is MCF7 breast.
Test [7] concerns T-47D breast.
The test system of test [8] is HS 578T breast.
Test [9] has as its system MDA-MB-231 breast.
Test [10] deals with NCI/ADR-RES ovarian.

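Growth conditions: 96-well plates. Treatment: test compound, 48 hours, 5 concentrations. Analysis: linear interpolation between bracketing concentrations; unreached endpoints set to highest concentration. GI50: concentration for 50% inhibition of growth. At the TGI there is no net growth.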

Consider `Cc1nc(-c2cccnc2)sc1C(=O)/C=C/c1cccc([N+](=O)[O-])c1`, for which the TGI in [1], in test [2] and in test [3] was above 100 µM throughout.

Consider `COc1ccc(-c2c(C3=NCCCN3)nnn2-c2ccc([N+](=O)[O-])cc2)cc1`, for which the TGI in [1], in [2], in [4] and in test [3] was above 100 µM throughout.

Turning to `COc1cc(CNc2nc3ccc(C(F)(F)F)cc3nc2-c2ccccc2)cc(OC)c1OC`, the TGI in test [5], in test [1] and in test [4] was above 100 µM each time.

`Cc1ccc(C)c(N2C(=O)C(=O)C(c3nc4ccccc4s3)C(=Nc3cccc4c(=O)[nH][nH]c(=O)c34)C2=O)c1` (stereo not drawn): the TGI in [1], in test [2], in test [4] and in test [3] was above 100 µM in each case.

Turning to `CC1(O)CCn2c(=O)c3cc4ccccc4cc3c(=O)n2C1O` (stereo not drawn), the TGI in test [1], in [2], in test [4] and in [3] was above 100 µM throughout.

Consider `Cc1c(C)c(CC(=O)N2CC2)c(C)c(C)c1CC(=O)N1CC1`, for which the TGI in [6] is 63.4 µM; in test [1], 56.5 µM; in test [7], 80.5 µM; in test [2], 24.5 µM; in test [4], 37.9 µM; in test [3], 75.3 µM. In addition, the TGI in test [8] stood at 81.9 µM; in [9], 48.1 µM; in test [10], 74.4 µM.

For `CC(C)[O-].CC(C)[O-].O=c1cccccc1[O-].O=c1cccccc1[O-].[Ti+4]`, the GI50 in test [5] is 33.8 µM; in test [1] it was 42 µM; in [4], 31 µM; in test [3], above 100 µM. Also, the TGI in [5] is 97.3 µM; in test [1], above 100 µM; in test [4], above 100 µM; in [3], above 100 µM.

As for `c1ccc2[nH]c(CNc3ccc(C4C[Se]N=N4)cc3)nc2c1` (stereo not drawn), the TGI is above 100 µM in test [1], 72.6 µM in test [2], 67.7 µM in [4] and above 100 µM in [3].

Consider `O=c1[nH]c2cc([N+](=O)[O-])ccc2nc1/C(=N\Nc1ccccc1)C(O)c1ccc2c(c1)OCO2` (stereo not drawn), for which the TGI in test [1], in test [2] and in test [4] was above 100 µM each time.

Turning to `N.N.N.N.N.O=S(=O)([O-])S(=O)(=O)[O-].[Co+3]`, the GI50 in test [1] and in test [4] was above 100 µM each time. Also, the TGI in test [1] and in [4] was above 100 µM in each case.

With `CC1=NN(C(=O)c2ccncc2)C(=O)C1N=Nc1ccc(F)cc1` (stereo not drawn), the TGI in [5], in test [1], in test [2] and in [4] was above 100 µM throughout.

Take `Cc1ccccc1/C=C/C(=O)c1ccccc1`: the TGI worked out at 30.8 µM in test [5], 54.9 µM in test [1], 48 µM in test [2] and 38.6 µM in test [4].

For `N#Cc1c(-c2ccco2)cc(-c2ccccc2)[nH]c1=O`, the TGI in test [1] and in [4] was above 100 µM in each case.

`Cc1c2ccncc2c(C)c2c1[nH]c1ccc(O)c(OCC(F)(F)F)c12`: the TGI in test [5] came to 22.9 µM; in test [1] it was 18.2 µM; in [2], 10.7 µM; in test [4] it was 15.5 µM.

With `COc1ccc2c(NCCCCCCNc3c4ccccc4nc4cc(OC)ccc34)c3ccccc3nc2c1`, the TGI in test [6] was found to be 3.35 µM; in test [1], 2.62 µM; in [7], 6.16 µM; in test [3], 10.9 µM; in test [8] it was 0.937 µM; in [9], 0.385 µM. The compound also registered a TGI in test [10] of 18.8 µM.

In the case of `C=C1C2Oc3ccccc3C1N(c1ccccc1)O2` (stereo not drawn), the TGI is 43.5 µM in test [5], above 100 µM in [1], 79 µM in test [2] and above 100 µM in [4].

As to `N#C/C(=C1\SC(N=Nc2ccc(Cl)cc2)C(=O)N1c1ccccc1)c1nc2ccccc2[nH]1` (stereo not drawn), the TGI is 84.8 µM in test [5], above 100 µM in [1] and above 100 µM in test [4].

In the case of `Cc1cccc(C)c1N1C(=O)C(=O)C(c2nc3ccccc3s2)C(=Nc2cccc3c(=O)[nH][nH]c(=O)c23)C1=O` (stereo not drawn), the TGI in test [1], in test [4] and in [3] was above 100 µM throughout.

As to `CN(C)C(=S)Nc1nnc(Nc2ccccc2)s1`, the TGI in [1], in [4] and in test [3] was above 100 µM in each case.

`CC(=O)[CH-]C(=O)c1ccccc1.CC(=O)[CH-]C(=O)c1ccccc1.CC1(C)OCC(C2OC3OC(C)(C)OC3C2[O-])O1.CC[O-].[Ti+4]` (stereo not drawn): the GI50 in test [1] is 9.78 µM; in test [3], 21.4 µM. Further, the TGI in [1] worked out at 24.7 µM; in [3], 56.5 µM.

As to `O=C1CNS(=O)(=O)N1`, the TGI in [5], in [1], in test [2] and in [4] was above 100 µM each time.

As for `CC1(C)CC(=O)C(CC2C(=O)c3ccccc3C2=O)C(=O)C1`, the TGI in [1], in test [2], in test [4] and in test [3] was above 100 µM each time.

Turning to `CN1c2ccccc2SC2C(c3ccccc3)=NOC21` (stereo not drawn), the TGI in test [6] is above 100 µM; in [7], 94.3 µM; in test [8] it was above 100 µM; in test [9] it was above 100 µM; in test [10], 87.3 µM.

On to `c1ccc(-c2nc(N3CCCNCC3)c3nc(-c4ccccc4)oc3n2)cc1`, for which the GI50 is 1.67 µM in test [6]; 1.78 µM in test [7]; 1.86 µM in test [8]; 1.72 µM in test [9]; 1.91 µM in test [10]. Besides, the TGI was found to be 3.34 µM in test [6]; 3.64 µM in test [7]; 3.94 µM in [8]; 3.21 µM in test [9]; 3.86 µM in test [10].

On to `Cc1c(C(=O)/C=C/c2ccccc2[N+](=O)[O-])[n+](=O)c2ccccc2n1[O-]`, for which the TGI was determined as 17.9 µM in test [1], 18 µM in test [2], 16.6 µM in [4] and 28.7 µM in test [3].

Turning to `N#CC(C#N)=c1c2nsnc2c(=C(C#N)C#N)c2nsnc12`, the TGI in [1] stood at 4.39 µM; in [2] it was 3.93 µM; in test [4], 2.99 µM; in test [3], 5.09 µM.

As to `O=C1/C(=C/c2ccc([N+](=O)[O-])cc2)COc2ccc(O)cc21`, the GI50 is 1.23 µM in [6]; 9.73 µM in test [7]; 3.54 µM in test [8]; 4.77 µM in [9]; 16.9 µM in test [10]. The TGI in [6] was 2.8 µM; in test [7], above 100 µM; in test [8] it was above 100 µM; in test [9] it was 36.9 µM; in test [10] it was above 100 µM.

Turning to `CC(C)(C)OC(=O)NC1CCCC1=O` (stereo not drawn), the TGI in [5], in [1] and in [4] was above 100 µM in each case.

Take `COc1cc2nc(-c3ccc(C(F)(F)F)cc3)cc(OCCCN3CCCC3)c2cc1OC`: the GI50 in [6] is 1.12 µM; in test [7], 0.478 µM; in test [8], 2.48 µM; in [9], 0.532 µM; in test [10], 0.47 µM. In addition, the TGI in test [6] was determined as 4.13 µM; in test [7], 15.9 µM; in [8], 19.3 µM; in test [9], 8.23 µM; in [10], 39 µM.

`Cc1ccc(NC(=O)/C(Cc2cc(=O)oc3cc(O)ccc23)=N\NC(=O)C[N+](C)(C)C)cc1C`: the TGI in test [6], in [7], in test [8], in test [9] and in test [10] was above 100 µM in each case.

With `O=C1c2ccccc2-c2c1c1c(NCCCO)nc3ccccc3c1n2Cc1ccccc1`, the GI50 in test [6] is 17.2 µM; in [7] it was 21 µM; in test [8], 40.6 µM; in test [9], 20.7 µM; in test [10] it was 18.2 µM. Besides, the TGI in test [6] was 31 µM; in test [7], 46.4 µM; in [8] it was above 100 µM; in test [9] it was 42.7 µM; in test [10], 49.4 µM.

Regarding `CCNCCNc1cc(-c2ccc(C#N)cc2)c(C#N)c2nc3ccccc3n12`, the GI50 is 3.59 µM in test [6]; 2.34 µM in test [7]; 3.49 µM in [8]; 2.35 µM in [9]; 5.74 µM in test [10]. The TGI in test [6] worked out at 16.2 µM; in test [7], 6.39 µM; in test [8], 13.9 µM; in test [9], 5.61 µM; in test [10] it was 36 µM.
